System: filaggrin protein
Experiment: Expression of filaggrin protein, Western blot filaggrin/actin (Experiment 3)
Type: cell-based, human
Conditions: control = 100%
Procedure: Then, the expression of filaggrin was induced in such a manner of further culturing the cells for another four days, while replacing the culture medium with an EpiLife medium supplemented with 2 μM, 5 μM, or 10 μM of sodium adenosine N1-oxide 5′-phosphate every three days. […] After four days culture, the resultant cells were washed with Dulbecco's phosphate buffered saline, added with 0.1 mL of an SDS sample buffer (pH 6.8) containing 62.5 mM Tris-HCl, 2% SDS, 10% glycerol, and 50 mM DTT along with a protease inhibitor, and collected with a cell scraper. The collected cells were boiled for 10 min, disrupted ultrasonically, and quantified with “Pierce BCA Protein Assay Kit”, commercialized by ThermoFisher Scientific K. K., Yokohama, Japan. A prescribed amount of the resulting disrupted cells was sampled and subjected to SDS-polyacrylamide gel electrophoresis in an amount of 100 μg/lane, and the resulting gel was transferred to a PVDF membrane. The resulting transferred PVDF membrane was blocked with “Block Ace”, commercialized by DS Pharma Biomedical Co., Ltd., Osaka, Japan, reacted with a 200-fold dilution of “AKH1”, a mouse anti-filaggrin antibody, commercialized by, Santa Cruz Biotechnology Inc., CA, USA, or a 20,000-fold dilution of “MAB1501”, a mouse actin antibody, commercialized by Chemicon International Inc., MA, USA, as a first antibody, and then reacted with a 2,000-fold dilution of “P0447”, an HRP-labeled anti-mouse immunoglobulin, commercialized by Dako Japan, Tokyo, Japan, as a secondary antibody. After the reaction, by using ECL Plus Western Blotting Detection System, commercialized by GE Healthcare Japan, Tokyo, Japan, bands were detected on “Hyperfilm ECL”, a chemiluminescent film commercialized by GE Healthcare Japan, Tokyo, Japan. The detected bands were analyzed and quantified with “Image J”, an image analyzing software. A control system with no addition of any of the test substances was provided and the increasing intensity ratio of a band of filaggrin/actin was regarded as 100%, with which data for the increased percentages of the intensity ratios of bands of filaggrin/actin of the test substances were comparatively evaluated.

In the case of `Nc1c2ncn([C@@H]3O[C@H](COP(=O)([O-])O)[C@@H](O)[C@H]3O)c2nc[n+]1[O-].[Na+]` [Sodium adenosine N1-oxide 5′-phosphate, sodium adenosine N1-oxide 5′-phosphate], the “Relative expression level of filaggrin protein (%)” value (shortened to “Relative expression level … (%)”) (2 μM) is reported as 133%, the “Relative expression level … (%)” value (5 μM) is reported as 206% and the “Relative expression level … (%)” value (10 μM) is reported as 308%.

From patent publication US10071042B2, “External dermatological agent for anti-ageing” (Hayashibara Co., Ltd., priority 2014, dated 2018)
